Values quoted from earlier work, collected in the CATMoS acute toxicity set (Mansouri et al. 2021).
Several values for one entry are separate records, joined by “and”; a condition that tells them apart may be missing. Equal entries are not always repeated.

Assay: rat acute oral toxicity
Details: in vivo
From the text: […]The data set underlying the modeling effort for this project was initially compiled by NICEATM and U.S. EPA’s CCTE. Briefly, LD50 data were collected from rat acute oral systemic toxicity tests, including limit tests, ranges/confidence intervals, and discrete LD50 values. The full data set included 21,200 LD50 entries for 15,688 substances. […] Data were reviewed to ensure that LD50 values with obvious errors in the extracted data such as unit conversion errors (e.g., comma and decimal separator misplacements) were either fixed or removed. After this review, 16,209 LD50 values remained. Many of the chemicals represented had multiple LD50 entries, requiring that a single representative value per Chemical Abstracts Service Registry Number (CASRN) identifier be defined to facilitate modeling efforts. Based on ATWG feedback and to define the representative LD50 as a protective value while accounting for the distribution across multiple LD50s, the median of the lowest quartile was computed using only discrete LD50 values (omitting limit test data and range and confidence interval data). A detailed summary of the data compilation is available online on the NICEATM webpage dedicated to the collaborative modeling project (NTP 2020).
[…][…] For categorical designations, limit test and range/confidence interval LD50 data were integrated wherever possible. As such, the number of chemicals with end point values/calls varies across the modeling end points (Table 3) based on whether chemicals had representative LD50 values and/or other data. If a chemical had both, the representative value was used to determine categorical calls rather than limit test data. Some data were useable only for certain end points and categories depending on the thresholds. For example, ranges that spanned multiple hazard categories were considered only for the binary (very toxic/nontoxic) end points and omitted from rendering a determination for hazard category assignment.
[…]The final data set comprising 11,992 chemicals was split into training and evaluation sets […], respectively. This process was performed semirandomly by ordering chemicals based on the five end points (categorical and continuous LD50 values) and partitioning every fourth record into the evaluation set accordingly. This approach was taken to ensure an equivalent distribution of the LD50 values and the different hazard categories between the training and the evaluation sets without supervised sampling of the chemicals based on structures (Figure 1A). The sources of the chemical structures were also kept equivalent between the two sets, with chemical structures obtained from DSSTox, being the highest quality, representing over 75% of each set (Figure 1B).

First: CC(Oc1ccc(Oc2ccc(Cl)cc2Cl)cc1)C(=O)O (stereo not drawn)
Second: ClC(Cl)=C(c1ccc(Cl)cc1)c1ccccc1Cl
The LD50 of the first is 1.6-fold lower: 563 mg/kg for the first, 880 mg/kg for the second.

`CNc1ccc(C(O)(c2ccc(N(C)C)cc2)c2ccc(N(C)C)cc2)cc1` and `O=C(OCC(O)CO)c1ccccc1Nc1ccnc2c(C(F)(F)F)cccc12` (stereo not drawn) are within 1.5-fold of each other in LD50: 500 mg/kg for the first, 535 mg/kg for the second.

Compared with `COc1cc(Cc2cnc(N)nc2N)cc(OC)c1Br`, `COc1ccc2c(=O)oc3c(OC)cc(CCN(C)C)c4c(=O)oc1c2c34` is 4.8-fold lower in LD50: 2510 mg/kg for the first, 518 mg/kg for the second.

Going from `CCCSCSP(=S)(OCC)OCC` to `CCCCC(CC)CNCC(CC)CCCC` (stereo not drawn), the LD50 rises from 2.8 mg/kg to 1640 mg/kg (590-fold).

First: O=c1ccc(=O)[nH][nH]1
Second: Nc1cc([N+](=O)[O-])ccc1O
The LD50 of the first is 4.5-fold higher: 10800 mg/kg for the first, 2400 mg/kg for the second.

Compared with `CN(C)CCOc1ccnc(N)n1`, `Cc1ccnc(C)c1` is 7.5-fold lower in LD50: 1500 mg/kg for the first, 200 mg/kg for the second.

Compared with `S=C1NCCC(COc2ccccc2)O1` (stereo not drawn), `OCCOCCOCCOCCOc1ccccc1` is 1.7-fold lower in LD50: 2200 mg/kg for the first, 1260 mg/kg for the second.

First: CNC(=O)ON=C1CSCCS1
Second: CNC(=O)Oc1cc(C)c(C)cc1Cl
The LD50 of the first is 2-fold lower: 15 mg/kg for the first, 30 mg/kg for the second.

Compared with `Cc1cc(C(C)(C)CC(C)(C)C)ccc1OCCOCC[N+](C)(C)Cc1ccccc1`, `CC(C(=O)OCCOCCO)c1ccc2c(c1)C(=O)Cc1ccccc1O2` (stereo not drawn) is 3.1-fold lower in LD50: 800 mg/kg for the first, 260 mg/kg for the second.

`Cc1cccc(C)c1N/N=C(/N)N(C)C` and `CCN(CC)C(=O)c1ccccc1C` are within 1.5-fold of each other in LD50: 980 mg/kg for the first, 1210 mg/kg for the second.

Going from `CCCCNC1CCCCC1` to `CCCCC(=O)OC1CCC(N2CCCCC2)CC1` (stereo not drawn), the LD50 rises from 330 mg/kg to 1510 mg/kg (4.6-fold).

Going from `CC(C)(C)c1cc(CCC(=O)O)ccc1O` to `N[C@@H](Cc1ccc(O)c(O)c1)C(=O)O`, the LD50 rises from 1000 mg/kg to 1780 mg/kg (1.8-fold).

Compared with `N#CC(Cl)CCl` (stereo not drawn), `O=C(Cl)C(Cl)Cl` is 110-fold higher in LD50: 22 mg/kg for the first, 2460 mg/kg for the second.

First: CCCCCCCCCCCC[N+](C)(C)Cc1ccc(Cl)c(Cl)c1
Second: CCCCCCCCCCCCOCC(O)COS(=O)(O)=S (stereo not drawn)
The LD50 of the first is 2.5-fold lower: 730 mg/kg for the first, 1820 mg/kg for the second.

First: Cc1nc(C)c(Cl)c(O)c1Cl
Second: Cc1c(Cl)c(Br)c(Cl)c2[nH]c(C(F)(F)F)nc12
The LD50 of the first is 980-fold higher: 18000 mg/kg for the first, 18.3 mg/kg for the second.

Compared with `CCOC(=O)C(Cl)=NNc1ccccc1`, `C=CC=NNc1ccccc1` is 19-fold lower in LD50: 13000 mg/kg for the first, 700 mg/kg for the second.

Compared with `CC(=O)[C@]1(O)Cc2c(O)c3c(c(O)c2[C@@H](O[C@H]2C[C@H](N)[C@H](O)[C@H](C)O2)C1)C(=O)c1ccccc1C3=O`, `O=c1c(O)c(-c2ccc(O)c(O)c2)oc2cc(O)cc(O)c12` is 30-fold higher in LD50: 5.43 mg/kg for the first, 161 mg/kg for the second.

Compared with `CCOC(C1=NCCCCN1)c1ccc(Cl)cc1` (stereo not drawn), `CC(C)NC(=N)NC(=N)Nc1ccc(Cl)cc1` is 6.4-fold lower in LD50: 370 mg/kg for the first, 58 mg/kg for the second.

First: CN1C(=O)CN=C(c2ccccc2F)c2c1ccc(NC(=O)N1CCOCC1)c2Cl
Second: Cc1c(-c2ccccc2)oc2c(C(=O)OC(C)(C)CN3CCCCC3)cccc2c1=O
The LD50 of the first is 1.6-fold lower: 1250 mg/kg for the first, 1980 mg/kg for the second.

Compared with `C[N+]1(C)CCN(CC(O)(c2ccccc2)C2CCCCC2)CC1` (stereo not drawn), `CC(C)NC1CCC(c2ccccc2)(c2ccccc2)CC1` is 1.5-fold lower in LD50: 958 mg/kg for the first, 623 mg/kg for the second.

First: O=C(O)Cc1ccccc1
Second: ClCc1cccc2ccccc12
The LD50 of the first is 2.5-fold higher: 2250 mg/kg for the first, 890 mg/kg for the second.

`c1ccsc1` and `Cc1onc2c(=O)n(C)nc(-c3ccccc3)c12` are within 1.5-fold of each other in LD50: 1400 mg/kg for the first, 1000 mg/kg for the second.

First: CC(=O)NO
Second: CC(=O)OCC(C)O (stereo not drawn)
The LD50 of the first is 3.8-fold lower: 4800 mg/kg for the first, 18000 mg/kg for the second.

Going from `C=CC(=O)OC(C)(C)C` to `COC(CC(C)=O)OC`, the LD50 rises from 1050 mg/kg to 6200 mg/kg (5.9-fold).

First: O=C1c2ccccc2-c2c([N+](=O)[O-])cc3c4cc([N+](=O)[O-])c5c6c(ccc(c7ccc1c2c73)c64)C(=O)c1ccccc1-5
Second: O=[N+]([O-])c1ccc(Cl)cc1C(F)(F)F
The LD50 of the first is 18-fold higher: 10000 mg/kg for the first, 554 mg/kg for the second.

Going from `FC(F)(F)c1nc2c(C(F)(F)F)cc(Cl)cc2[nH]1` to `FC(F)(F)c1nc2c(Cl)c(Br)c(Cl)cc2[nH]1`, the LD50 rises from 1.66 mg/kg to 8.78 mg/kg (5.3-fold).

Compared with `CCC/C=C/C=O`, `CCCCCCCCOC(C)=O` is 3.8-fold higher in LD50: 780 mg/kg for the first, 3000 mg/kg for the second.

Compared with `CC(O)COS(C)(=O)=S` (stereo not drawn), `CNC(=O)c1ccc(Cl)c(S(=O)(=O)NC)c1` is 1.8-fold higher in LD50: 794 mg/kg for the first, 1400 mg/kg for the second.

`COc1ccc2c3c1O[C@H]1[C@@H](O)C=C[C@H]4[C@@H](C2)[N@@+](C)([O-])CC[C@@]341` and `CCCCCCCCC[N+]1(C)[C@H]2CC(OC(=O)C(CO)c3ccccc3)C[C@H]1[C@H]1O[C@H]12` (stereo partly drawn) are within 1.5-fold of each other in LD50: 1600 mg/kg for the first, 1300 mg/kg for the second.

First: Cc1cc2[nH]c(C(F)(F)F)nc2cc1Br
Second: Cc1ccc(Oc2cc(SCC(=O)NN)ncn2)cc1
The LD50 of the first is 6-fold lower: 77 mg/kg for the first, 460 mg/kg for the second.

For `CC(C)(N=C=O)c1cccc(C(C)(C)N=C=O)c1`, the LD50 is given as 4600 mg/kg.

In the case of `CC1NCCOC1c1ccccc1` (stereo not drawn), the LD50 is listed as 370 mg/kg and 165 mg/kg.
For `CN(C)C(CSC#N)CSC#N`, the LD50 is listed as 125 mg/kg and 82 mg/kg.
